Measurements published in PubChem BioAssay AID602355 (The Scripps Research Institute Molecular Screening Center, 2012).
Activity calls are given as the source filed them. No rule for the calls is given here.

How the values were obtained:
Test in all cases: serine hydrolase panel inhibition in mouse proteome, late-stage follow-up, selectivity assay for DAGLb inhibitor project, gel-based competitive ABPP, fluorescence (AID 602355)
FAAH = details: FP-rhodamine fluorescence, at 10 µM (top of the series)
ABHD11 = details: FP-rhodamine fluorescence, at 10 µM (top of the series)
[1] = molecular target: Platelet-activating factor acetylhydrolase 2, cytoplasmic (Mus musculus) (UniProt Q8VDG7); details: FP-rhodamine fluorescence, PAFAH2, at 10 µM (top of the series)
Sequence of Platelet-activating factor acetylhydrolase 2, cytoplasmic (Mus musculus) (Q8VDG7 whole entry, looked up): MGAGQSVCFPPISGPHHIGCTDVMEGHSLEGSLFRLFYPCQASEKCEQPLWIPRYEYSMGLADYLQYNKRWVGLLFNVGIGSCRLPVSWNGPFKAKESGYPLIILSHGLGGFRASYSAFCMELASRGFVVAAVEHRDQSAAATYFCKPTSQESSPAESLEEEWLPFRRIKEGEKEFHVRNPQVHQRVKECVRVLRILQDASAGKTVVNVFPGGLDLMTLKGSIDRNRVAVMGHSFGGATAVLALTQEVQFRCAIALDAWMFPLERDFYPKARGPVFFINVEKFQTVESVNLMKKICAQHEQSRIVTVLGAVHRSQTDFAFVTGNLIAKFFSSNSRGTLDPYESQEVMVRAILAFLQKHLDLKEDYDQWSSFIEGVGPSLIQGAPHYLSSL

MAGL = details: FP-rhodamine fluorescence, at 10 µM (top of the series)
[2] = molecular target: Monoacylglycerol lipase ABHD6 (Mus musculus) (UniProt Q8R2Y0); details: FP-rhodamine fluorescence, at 10 µM (top of the series)
Sequence of Monoacylglycerol lipase ABHD6 (Mus musculus) (Q8R2Y0 whole entry, looked up): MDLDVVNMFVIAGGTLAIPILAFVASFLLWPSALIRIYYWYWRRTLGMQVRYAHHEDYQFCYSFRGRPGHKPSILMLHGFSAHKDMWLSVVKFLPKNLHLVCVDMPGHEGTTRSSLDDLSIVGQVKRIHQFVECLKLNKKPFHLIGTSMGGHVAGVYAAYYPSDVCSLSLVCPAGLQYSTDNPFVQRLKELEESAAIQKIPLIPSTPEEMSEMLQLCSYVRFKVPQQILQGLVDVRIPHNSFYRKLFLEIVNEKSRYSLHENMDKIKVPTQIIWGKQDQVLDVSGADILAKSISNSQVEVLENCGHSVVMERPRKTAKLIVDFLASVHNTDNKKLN

[3] = molecular target: Acyl-protein thioesterase 1 (Mus musculus) (UniProt P97823); details: FP-rhodamine fluorescence, LYPLA1, at 10 µM (top of the series)
Sequence of Acyl-protein thioesterase 1 (Mus musculus) (P97823 whole entry, looked up): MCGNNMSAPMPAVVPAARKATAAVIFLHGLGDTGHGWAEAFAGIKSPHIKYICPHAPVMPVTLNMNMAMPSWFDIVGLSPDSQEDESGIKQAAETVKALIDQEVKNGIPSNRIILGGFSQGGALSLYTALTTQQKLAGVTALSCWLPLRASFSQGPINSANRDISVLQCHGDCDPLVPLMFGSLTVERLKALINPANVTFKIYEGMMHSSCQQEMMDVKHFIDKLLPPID

ABHD12 = details: FP-rhodamine fluorescence, at 10 µM (top of the series)
LYPLA2 = details: FP-rhodamine fluorescence, at 10 µM (top of the series)
[4] = molecular target: Platelet-activating factor acetylhydrolase (Mus musculus) (UniProt Q60963); details: FP-rhodamine fluorescence, PLA2G7, at 10 µM (top of the series)
Sequence of Platelet-activating factor acetylhydrolase (Mus musculus) (Q60963 whole entry, looked up): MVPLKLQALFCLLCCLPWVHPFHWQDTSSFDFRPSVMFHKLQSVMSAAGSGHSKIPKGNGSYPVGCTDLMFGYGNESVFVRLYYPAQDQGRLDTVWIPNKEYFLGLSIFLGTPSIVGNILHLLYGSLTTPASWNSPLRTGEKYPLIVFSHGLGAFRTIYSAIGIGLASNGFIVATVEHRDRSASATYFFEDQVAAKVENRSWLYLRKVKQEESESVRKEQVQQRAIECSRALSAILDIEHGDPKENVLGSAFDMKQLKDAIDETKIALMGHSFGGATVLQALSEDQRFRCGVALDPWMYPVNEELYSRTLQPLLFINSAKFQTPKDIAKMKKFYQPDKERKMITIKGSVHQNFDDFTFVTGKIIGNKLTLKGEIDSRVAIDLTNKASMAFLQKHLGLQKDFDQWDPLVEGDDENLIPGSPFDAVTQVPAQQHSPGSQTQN

[5] = molecular target: Diacylglycerol lipase-beta (Mus musculus) (UniProt Q91WC9); details: FP-rhodamine fluorescence, DAGLb, at 10 µM (top of the series)
Sequence of Diacylglycerol lipase-beta (Mus musculus) (Q91WC9 whole entry, looked up): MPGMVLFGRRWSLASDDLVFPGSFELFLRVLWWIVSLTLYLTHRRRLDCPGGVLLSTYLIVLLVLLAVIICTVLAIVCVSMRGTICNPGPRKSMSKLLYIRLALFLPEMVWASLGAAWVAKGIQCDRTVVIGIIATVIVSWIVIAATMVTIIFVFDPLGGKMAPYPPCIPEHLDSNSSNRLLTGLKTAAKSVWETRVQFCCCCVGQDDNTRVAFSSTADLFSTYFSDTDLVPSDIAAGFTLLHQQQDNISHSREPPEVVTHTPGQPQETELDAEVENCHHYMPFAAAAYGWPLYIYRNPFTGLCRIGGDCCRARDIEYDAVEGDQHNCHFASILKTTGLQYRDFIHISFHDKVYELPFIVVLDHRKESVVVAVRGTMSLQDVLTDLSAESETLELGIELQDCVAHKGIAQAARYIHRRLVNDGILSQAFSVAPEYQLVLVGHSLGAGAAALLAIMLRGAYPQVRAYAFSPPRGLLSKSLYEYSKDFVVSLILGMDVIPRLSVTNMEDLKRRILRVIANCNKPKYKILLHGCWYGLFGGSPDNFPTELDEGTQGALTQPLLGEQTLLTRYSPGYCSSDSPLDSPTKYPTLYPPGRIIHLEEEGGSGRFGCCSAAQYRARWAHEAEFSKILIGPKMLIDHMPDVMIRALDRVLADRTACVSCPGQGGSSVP

PNPLA6 = details: FP-rhodamine fluorescence, at 10 µM (top of the series)

`O=C(N1CCCCC1Cc1ccccc1)n1cc(-c2ccc(-c3ccccc3)cc2)nn1` (stereo not drawn) was tested, and the inhibition (FAAH) was 25% (inactive), the inhibition (ABHD11) was 0% (inactive) and the inhibition [1] was 80% (inactive). The inhibition (MAGL) was 0% (inactive), the inhibition [2] was 100% and the inhibition [3] was 0% (inactive). The inhibition (ABHD12) was 20% (inactive), the inhibition (LYPLA2) was 0% (inactive) and the inhibition [4] was 100%.
With `COc1ccc(-c2ccc(-c3cn(C(=O)N4CCCCC4c4ccccc4)nn3)cc2)cc1` (stereo not drawn) the inhibition (FAAH) was 70%, the inhibition (ABHD11) was 0% (inactive) and the inhibition [5] was 20% (inactive). For the same molecule, the inhibition (PNPLA6) was 55% (inactive), the inhibition (MAGL) was 0% (inactive) and the inhibition [2] was 100%. The inhibition [3] was 15% (inactive), the inhibition (ABHD12) was 0% (inactive) and the inhibition (LYPLA2) was 15% (inactive).
In the case of `COc1ccccc1-c1ccc(-c2cn(C(=O)N3CCCCC3Cc3ccccc3)nn2)cc1` (stereo not drawn), the inhibition (FAAH) is reported as 0% (inactive), the inhibition (ABHD11) is reported as 0% (inactive) and the inhibition [1] is reported as 15% (inactive). For the same molecule, the inhibition [5] was 95%, the inhibition (MAGL) was 100% and the inhibition [2] was 100%. For the same molecule, the inhibition [3] was 0% (inactive), the inhibition (ABHD12) was 0% (inactive) and the inhibition (LYPLA2) was 0% (inactive). It also gave an inhibition [4] of 85%.
